Measurements taken from patent publication US20240343761A1, “APELINERGIC MACROCYCLES AND USES THEREOF” (priority 2021, published 2024).
Numbered stars: 1 amine (or outer) side, 2 acyl side, 3 side chain; on linkers, the order of the positions; unused ones are H or OH. Bridge positions count the residues as written; N and C are the ends. Square brackets hold non-standard residues; d marks the D form. Peptide text beside a SMILES is read from it. * marks the point of attachment. X5 = O=C([C@H](Cc1cc(C2CCCC2)c(OCc2ccccc2)c(C2CCCC2)c1)N[*:1])[*:2]; X1 = O=C([C@H](Cc1ccc(OCc2ccccc2)c(C2CCCC2)c1)N[*:1])[*:2]; Benzoyl(4-Br) = O=C(c1ccc(Br)cc1)*; hArg = N=C(N)NCCCC[C@H](N)C(=O)O; pGlu = O=C1CC[C@@H](C(=O)O)N1; Nle = CCCC[C@H](N)C(=O)O; Bn = c1ccc(C*)cc1

Assays:
hAPJ receptor [1] = target: T1, hAPJ receptor (Homo sapiens, UniProt P35414); test: BRET-based β-arrestin2 recruitment assay in HEK293 cells; format: cell-based
T1 construct: expressed in transfected cells; host or cells: HEK293, transient transfection with PEI
T1 sequence (P35414 1-380): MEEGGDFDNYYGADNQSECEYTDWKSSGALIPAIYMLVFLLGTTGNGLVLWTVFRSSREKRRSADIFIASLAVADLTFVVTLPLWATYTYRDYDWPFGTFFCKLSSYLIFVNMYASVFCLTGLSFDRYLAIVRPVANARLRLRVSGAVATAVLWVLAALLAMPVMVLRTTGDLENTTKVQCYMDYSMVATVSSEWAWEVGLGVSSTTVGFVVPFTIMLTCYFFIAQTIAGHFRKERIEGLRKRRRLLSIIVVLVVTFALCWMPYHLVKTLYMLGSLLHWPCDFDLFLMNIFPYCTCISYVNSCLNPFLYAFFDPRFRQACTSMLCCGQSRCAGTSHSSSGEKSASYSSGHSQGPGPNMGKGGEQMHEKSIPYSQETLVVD
Protocol: (§1) HEK293 cells were cultivated in high glucose DMEM medium having 10% FBS, 100 U/mL penicillin/streptomycin, 2 mM glutamine, and 20 mM HEPES at 37° C. in T175 flasks under humidified chamber at 5% CO2. […] Cells were then washed with phosphate-buffered saline (PBS) and 90 μL Hanks' balanced salt solution was added in each well. Then, cells were stimulated with analogs at concentrations ranging from 10^−5 M to 10^−11 M for 5 min at 37° C. (Gαi1) or for 30 min at room temperature (β-arrestin2). After stimulation, 5 μM of coelanterazine 400A was added to each well and the plate was read using the BRET^2 filter set of a GeniosPro plate reader (Tecan, Austria). The BRET ratio was determined as GFP10em/RlucIIem. Data were plotted and EC50 values were determined using GraphPad Prism 8. Each data point represents the mean±SEM of at least three different experiments each done in triplicate.

hAPJ receptor [2] = target: T1, hAPJ receptor; test: BRET-based Gαi1 activation assay in HEK293 cells; format: cell-based
Protocol: as §1

[3] = HEK293, Table V, read-out: ß-arr2 Emax
[4] = HEK293, Table V, read-out: Gαi1 Emax

SMILES | Emax (hAPJ receptor [1]; [3]) [%] | Emax (hAPJ receptor [2]; [4]) [%] | EC50 (hAPJ receptor [1]) [nM] | also measured
CCCC[C@H](NC(=O)[C@@H]1CCCN1C(=O)CNC(=O)[C@H](CCCCN)NC(=O)[C@@H]1CCN(S(=O)(=O)c2ccccc2[N+](=O)[O-])CC=CC[C@H](NC(=O)[C@H](CCCNC(=N)N)NC(=O)[C@@H]2CCC(=O)N2)C(=O)N[C@@H](CCCNC(=N)N)C(=O)N[C@@H](CC(C)C)C(=O)N[C@@H](CO)C(=O)N1)C(=O)N1CCC[C@H]1C(=O)N[C@@H](Cc1ccccc1)C(=O)O [Compound 16, Pyr-R-c[X-R-L-S-Alnb]c-K-G-P-Nle-P-F] | – | – | – | Emax (hAPJ receptor [1]; HEK293, read-out: ß-arr2 Emax): 98%; Emax (hAPJ receptor [2]; HEK293, read-out: Gαi1 Emax): 102%
CCCC[C@H](NC(=O)[C@@H]1CCCN1C(=O)CNC(=O)[C@H](CCCCN)NC(=O)[C@@H]1CCNCC=CC[C@H](NC(=O)[C@H](CCCNC(=N)N)NC(=O)[C@@H]2CCC(=O)N2)C(=O)N[C@@H](CCCNC(=N)N)C(=O)N[C@@H](CC(C)C)C(=O)N[C@@H](CO)C(=O)N1)C(=O)N1CCC[C@H]1C(=O)N[C@@H](Cc1ccccc1)C(=O)O [Compound 18, Pyr-R-c[X-R-L-S-Alb]c-K-G-P-Nle-P-F] | 86 | 100 | – | –
CCCC[C@H](NC(=O)[C@@H]1CCCN1C(=O)CNC(=O)[C@H](CCCCN)NC(=O)[C@@H]1CCN(C)CC=CC[C@H](NC(=O)[C@H](CCCNC(=N)N)NC(=O)[C@@H]2CCC(=O)N2)C(=O)N[C@@H](CCCNC(=N)N)C(=O)N[C@@H](CC(C)C)C(=O)N[C@@H](CO)C(=O)N1)C(=O)N1CCC[C@H]1C(=O)N[C@@H](Cc1ccccc1)C(=O)O [Compound 19, Pyr-R-c[X-R-L-S-Almb]c-K-G-P-Nle-P-F] | 90 | 102 | – | –
CCCC[C@H](NC(=O)[C@@H]1CCCN1C(=O)CNC(=O)[C@H](CCCCN)NC(=O)[C@@H]1CC=CC[C@H](NC(=N)N)C(=O)N[C@@H](CCCNC(=N)N)C(=O)N[C@@H](CC(C)C)C(=O)N[C@@H](CO)C(=O)N1)C(=O)N1CCC[C@H]1C(=O)N[C@@H](Cc1ccccc1)C(=O)O [Compound 23, Guanidine-c[X-R-L-S-X]c-K-G-P-Nle-P-F] | 92 | 103 | – | –
CCCC[C@H](NC(=O)[C@@H]1CCCN1C(=O)CNC(=O)[C@H](CCCCN)NC(=O)[C@@H]1CCN(S(=O)(=O)c2ccccc2[N+](=O)[O-])CC=CC[C@H](N)C(=O)N[C@@H](CCCNC(=N)N)C(=O)N[C@@H](CC(C)C)C(=O)N[C@@H](CO)C(=O)N1)C(=O)N1CCC[C@H]1C(=O)N[C@@H](Cc1ccccc1)C(=O)O [Compound 28, NH2-c[X-R-L-S-Alnb]c-K-G-P-Nle-P-F] | 82 | 106 | – | –
CC(C)C[C@@H]1NC(=O)[C@H](CCCNC(=N)N)NC(=O)[C@@H](N)CC=CC[C@@H](C(=O)N[C@@H](CCCCN)C(=O)NCC(=O)N2CCC[C@H]2C(=O)N[C@H](Cc2ccc(OCc3ccccc3)cc2)C(=O)O)NC(=O)[C@H](CO)NC1=O [Compound 44, NH2-c[X-R-L-S-X]c-K-G-P-(D-TyrOBn)] | 78 | 104 | – | –
CC(C)C[C@@H]1NC(=O)[C@H](CCCNC(=N)N)NC(=O)[C@@H](N)CC=CC[C@@H](C(=O)N[C@@H](CCCCN)C(=O)NCC(=O)N2CCC[C@H]2C(=O)N[C@H](Cc2ccc(O)cc2)C(=O)O)NC(=O)[C@H](CO)NC1=O [Compound 45, NH2-c[X-R-L-S-X]c-K-G-P-(D-Tyr)] | 54 | 100 | – | –
CCCC[C@H](NC(=O)[C@@H]1CCCN1C(=O)[C@@H]1CCCCNC(=O)CC[C@H](NC(=O)[C@H](CC(C)C)NC(=O)[C@H](CCCNC(=N)N)NC(=O)[C@@H]2CCCN2C(=O)[C@H](CCCNC(=N)N)NC(=O)[C@H](CCC(N)=O)NC(=O)[C@H](CCCNC(=N)N)NC(=O)[C@H](CCCNC(=N)N)NC(=O)[C@H](Cc2ccccc2)NC(=O)[C@H](CCCCN)NC(C)=O)C(=O)N[C@@H](Cc2c[nH]cn2)C(=O)N[C@@H](CCCCN)C(=O)N1)C(=O)N1CCC[C@H]1C(=O)N[C@@H](Cc1ccc(OCc2ccccc2)c(C2CCCC2)c1)C(=O)O [Compound 63, Ac-K-F-R-R-Q-R-P-R-L-[E-H-K-K]-P-Nle-P-cypTyrOBn] (Ac-KFRRQRPRLEHKKP[Nle]P[X1]-OH; lactam 10-13) | – | – | 63.6 | EC50 (hAPJ receptor [2]): 5.48 nM
CCCC[C@H](NC(=O)[C@@H]1CCCN1C(=O)[C@@H]1CCCCNC(=O)CC[C@H](NC(=O)[C@H](CC(C)C)NC(=O)[C@H](CCCNC(=N)N)NC(=O)[C@@H]2CCCN2C(=O)[C@H](CCCNC(=N)N)NC(=O)[C@H](CCC(N)=O)NC(=O)[C@H](CCCNC(=N)N)NC(=O)[C@H](CCCNC(=N)N)NC(=O)[C@H](Cc2ccccc2)NC(=O)[C@H](CCCCN)NC(C)=O)C(=O)N[C@@H](Cc2c[nH]cn2)C(=O)N[C@@H](CCCCN)C(=O)N1)C(=O)N1CCC[C@H]1C(=O)N[C@@H](Cc1cc(C2CCCC2)c(OCc2ccccc2)c(C2CCCC2)c1)C(=O)O [Compound 65, Ac-K-F-R-R-Q-R-P-R-L-[E-H-K-K]-P-Nle-P-dcypTyrOBn] (Ac-KFRRQRPRLEHKKP[Nle]P[X5]-OH; lactam 10-13) | – | – | > 10000 | –
CCCC[C@H](NC(=O)[C@@H]1CCCN1C(=O)[C@@H]1CCCCNC(=O)CC[C@H](NC(=O)[C@H](CC(C)C)NC(=O)[C@H](CCCNC(=N)N)NC(=O)[C@@H]2CCCN2C(=O)[C@H](CCCNC(=N)N)NC(=O)[C@H](CCC(N)=O)NC(=O)[C@H](CCCNC(=N)N)NC(=O)[C@H](CCCNC(=N)N)NC(=O)[C@H](Cc2ccccc2)NC(=O)[C@H](CCCCN)NC(C)=O)C(=O)N[C@@H](Cc2c[nH]cn2)C(=O)N[C@@H](CCCCN)C(=O)N1)C(=O)N1CCC[C@H]1C(=O)N[C@@H](Cc1ccc(OCc2ccccc2)cc1)C(=O)O [Compound 66, Ac-K-F-R-R-Q-R-P-R-L-[E-H-K-K]-P-Nle-P-TyrOBn] (Ac-KFRRQRPRLEHKKP[Nle]PY(Bn)-OH; lactam 10-13) | – | – | 334 | –
CCCC[C@H](NC(=O)[C@@H]1CCC(=O)NCCCC[C@H](N)C(=O)N[C@@H](CCCNC(=N)N)C(=O)N[C@@H](CCCNC(=N)N)C(=O)N1)C(=O)N1CCC[C@H]1C(=O)N[C@@H](CC(C)C)C(=O)N[C@@H](Cc1c[nH]cn1)C(=O)N[C@@H](CO)C(=O)N[C@@H](CCCNC(=N)N)C(=O)N[C@H](C(=O)N1CCC[C@H]1C(=O)N[C@@H](Cc1ccccc1)C(=O)N1CCC[C@H]1C(=O)O)C(C)C [Compound 72, c[K-R-R-E]-Nle-P-L-H-S-R-V-P-F-P] (H-KRRE[Nle]PLHSRVPFP-OH; lactam 1-4) | – | – | 47 ± 2 | EC50 (hAPJ receptor [2]): 1.7 ± 0.4 nM
CCCC[C@@H]1NC(=O)[C@@H](NC(=O)[C@H](CCCNC(=N)N)NC(=O)[C@H](CCCNC(=N)N)NC(=O)[C@@H]2CCC(=O)N2)CCC(=O)NCCCC[C@@H](C(=O)N[C@@H](Cc2c[nH]cn2)C(=O)N[C@@H](CO)C(=O)N[C@@H](CCCNC(=N)N)C(=O)N[C@H](C(=O)N2CCC[C@H]2C(=O)N[C@@H](Cc2ccccc2)C(=O)N2CCC[C@H]2C(=O)O)C(C)C)NC(=O)[C@@H]2CCCN2C1=O [Compound 75, Pyr-R-R-c[E-Nle-P-K]-H-S-R-V-P-F-P] ([pGlu]RRE[Nle]PKHSRVPFP-OH; lactam 4-7) | – | – | 2020 ± 479 | –
CC(C)C[C@@H]1NC(=O)[C@@H]2CCCN2C(=O)[C@@H](NC(=O)[C@H](CO)NC(=O)[C@H](CCCNC(=N)N)NC(=O)[C@H](CCCNC(=N)N)NC(=O)[C@@H]2CCC(=O)N2)CCC(=O)NCCCC[C@@H](C(=O)N[C@@H](CCCNC(=N)N)C(=O)N[C@H](C(=O)N2CCC[C@H]2C(=O)N[C@@H](Cc2ccccc2)C(=O)N2CCC[C@H]2C(=O)O)C(C)C)NC(=O)[C@H](Cc2c[nH]cn2)NC1=O [Compound 77, Pyr-R-R-S-c[E-P-L-H-K]-R-V-P-F-P] | – | – | 247 ± 62 | –
CC(C)C[C@@H]1NC(=O)[C@@H]2CCCN2C(=O)[C@@H](NC(=O)[C@H](CO)NC(=O)[C@H](CCCNC(=N)N)NC(=O)[C@H](CCCNC(=N)N)NC(=O)c2ccc(Br)cc2)CCC(=O)NCCCC[C@@H](C(=O)N[C@@H](CCCNC(=N)N)C(=O)N[C@H](C(=O)N2CCC[C@H]2C(=O)N[C@@H](Cc2ccccc2)C(=O)N2CCC[C@H]2C(=O)O)C(C)C)NC(=O)[C@H](Cc2c[nH]cn2)NC1=O [Compound 89, 4BrBz-R-R-S-[E-P-L-H-K]-R-V-P-F-P] ({Benzoyl(4-Br)}-RRSEPLHKRVPFP-OH; lactam 4-8) | – | – | 50 ± 4 | –
CC(C)C[C@@H]1NC(=O)[C@@H]2CCCN2C(=O)[C@@H](NC(=O)[C@H](CO)NC(=O)[C@H](CCCNC(=N)N)NC(=O)[C@H](CCCCNC(=N)N)NC(=O)[C@@H]2CCC(=O)N2)CCC(=O)NCCCC[C@@H](C(=O)N[C@@H](CCCNC(=N)N)C(=O)N[C@H](C(=O)N2CCC[C@H]2C(=O)N[C@@H](Cc2ccccc2)C(=O)N2CCC[C@H]2C(=O)O)C(C)C)NC(=O)[C@H](Cc2c[nH]cn2)NC1=O [Compound 90, Pyr-hR-R-S-[E-P-L-H-K]-R-V-P-F-P] | – | – | 394 ± 47 | –
CC(C)C[C@@H]1NC(=O)[C@@H]2CCCN2C(=O)[C@@H](NC(=O)[C@H](CO)NC(=O)[C@H](CCCCNC(=N)N)NC(=O)[C@H](CCCNC(=N)N)NC(=O)[C@@H]2CCC(=O)N2)CCC(=O)NCCCC[C@@H](C(=O)N[C@@H](CCCNC(=N)N)C(=O)N[C@H](C(=O)N2CCC[C@H]2C(=O)N[C@@H](Cc2ccccc2)C(=O)N2CCC[C@H]2C(=O)O)C(C)C)NC(=O)[C@H](Cc2c[nH]cn2)NC1=O [Compound 91, Pyr-R-hR-S-[E-P-L-H-K]-R-V-P-F-P] ([pGlu]R[hArg]SEPLHKRVPFP-OH; lactam 5-9) | – | – | 173 ± 20 | EC50 (hAPJ receptor [2]): 4.3 ± 1.1 nM
